Test results taken from patent US20070292888A1, “Methods for Measuring Enzyme Activities in Cells, Blood, Tumors and Tissues” (GEN-PATH PHARMACEUTICALS, INC., priority 2004, published 2007).

Experiments:
transketolase (TK) = target: T1, transketolase (TK) (Mus musculus, UniProt P40142); experiment: Transketolase activity in blood, tumors and tissues of treated mice (fluorescence NADH assay); assay type: in vivo; details: 11 days i.p. twice per day
T1 construct: from tissue; host or cells: mouse blood, spleen, tumor, kidney, lung, liver (crude lysates)
T1 sequence (P40142 1-623): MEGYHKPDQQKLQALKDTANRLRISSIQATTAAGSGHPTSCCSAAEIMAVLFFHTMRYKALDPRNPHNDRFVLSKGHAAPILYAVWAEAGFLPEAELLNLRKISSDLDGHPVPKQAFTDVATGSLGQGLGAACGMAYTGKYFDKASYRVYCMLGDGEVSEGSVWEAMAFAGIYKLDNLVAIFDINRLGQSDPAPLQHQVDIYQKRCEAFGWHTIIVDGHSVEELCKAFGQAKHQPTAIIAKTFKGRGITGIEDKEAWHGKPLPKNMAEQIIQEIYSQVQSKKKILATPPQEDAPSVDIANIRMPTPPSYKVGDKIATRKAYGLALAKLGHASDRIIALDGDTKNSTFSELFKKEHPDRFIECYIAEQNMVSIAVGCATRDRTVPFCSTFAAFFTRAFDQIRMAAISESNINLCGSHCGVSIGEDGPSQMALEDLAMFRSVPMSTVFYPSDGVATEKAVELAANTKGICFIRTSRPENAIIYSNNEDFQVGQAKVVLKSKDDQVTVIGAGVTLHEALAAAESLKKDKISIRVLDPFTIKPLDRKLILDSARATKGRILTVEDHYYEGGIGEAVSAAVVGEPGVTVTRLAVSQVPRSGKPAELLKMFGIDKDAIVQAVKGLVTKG
Procedure: Blood samples from mice were taken (40 μl whole blood) serially or from mice sacrificed at the end of the experiment. Tissues, such as tumors (e.g. from implantation, xenograft, or arising spontaneously), brain, heart, kidney, liver, lung and spleen were taken and flash frozen in liquid nitrogen or on dry ice and stored in −80° C. until time of assay. Four volumes of cold lysis buffer (20 mM HEPES, pH 7.5, 1 mM EDTA, 0.2 g/l Triton X-100® and 0.2 g/L sodium deoxycholate, supplemented with 1 mM DTT and 1 mM PMSF just before use) were added to the blood, which was dissolved by vortexing. For blood that was frozen before coagulation, a clear lysate was obtained. If coagulation occurred, homogenization was used as described below for tissue. Tissues were suspended in lysis buffer in 10 ml round bottom tubes and homogenized with PowerGen 125® (Fisher Scientific) for four seconds at highest power while submerged in an ice-water bath. This step was repeated after a few seconds, as necessary. The lysate was used right away or else flash frozen and stored at −80° C. until assay time. Eighty microliters (80 μl) of lysate (containing 5 mg tissue/ml lysate for TK and kGDH, 0.5 mg/ml for G6PDH) were put directly in individual wells of a 96-well clear-bottomed assay plate. Twenty microliters (20 μl) of 5× reaction mix was added to initiate each enzymatic reaction.
Each reaction was monitored for the appearance of NADH (for transketolase, alpha-ketoglutarate dehydrogenase, pyruvate dehydrogenase) or NADPH (for glucose-6-phosphate dehydrogenase) at room temperature in a fluorescent plate reader with excitation at 340 nm and emission at 470 nm in kinetic mode. The velocity was determined by the slope of the initial linear range of increasing fluorescence, expressed in fluorescent units (FU)/min. The protein concentration in the lysate was determined using Bradford assays (BioRad) with BSA as a standard. The enzymatic velocity was normalized by the total protein concentration for inter-sample comparison. To obtain reliable results across samples, similar starting protein concentrations were prepared (within approximately 30%) so that the normalized velocity required only small adjustments. This was achieved by weighing the tissue and putting in lysis buffer so that the suspensions contained the same amount of tissue/ml lysis buffer for all samples.
For TK, 15 μl of 5× assay buffer containing final concentrations of 50 mM HEPES, 40 mM KCl, 2.5 mM MgCl2, 5 mM NaArsenate, 1 mM NAD, 2 unit/ml glyceraldehydes-3-phosphate dehydrogenase (GAPDH) was added to 80 μl of lysate. Reaction kinetics were monitored on a fluorescent plate reader to allow any possible background activity via GAPDH to burn out. Then 5 μl of substrate mix containing final concentrations of 0.5 mM ribose-5-phosphate and 0.5 mM xylulose-5-phosphate was added to initiate the reaction. The reaction kinetics were monitored using a fluorescent plate reader, and the slope of the initial linear range was recorded as the velocity of the reaction (FU/min). See FIG. 1 for the reaction scheme.
To investigate the amount of in vivo enzyme inhibition following treatment with an inhibitor, we administered a single dose of N3PT (100 mg/kg, intraperitoneally [i.p.]) and blood, spleen and brain samples were collected at various times from 0-120 hours after dosing. The enzymatic activities were determined as described in Example 1. TK activity was measured in blood and spleen. Because TK activity in the brain is below the detection limit of the assay, kGDH activity was measured in brain samples. Measurements were taken at various time intervals
We measured enzyme activity in an expanded panel of tissues from mice treated with N3PT or OxyT for 11 days i.p., twice per day. Samples were taken from tumors, blood, brain, heart, kidney, lung and spleen, and TK, kGDH and G6PDH activities were determined as described above.

[1] = target: T2, glucose-6-phosphate dehydrogenase (G6PDH) (Mus musculus, UniProt Q00612); experiment: Glucose-6-phosphate dehydrogenase activity in tissues of treated mice (fluorescence NADPH assay); assay type: in vivo; details: 11 days i.p. twice per day, various organs
T2 construct: from tissue; host or cells: mouse tumor, blood, brain, heart, kidney, liver, lung, spleen (crude lysates)
Procedure: Blood samples from mice were taken (40 μl whole blood) serially or from mice sacrificed at the end of the experiment. Tissues, such as tumors (e.g. from implantation, xenograft, or arising spontaneously), brain, heart, kidney, liver, lung and spleen were taken and flash frozen in liquid nitrogen or on dry ice and stored in −80° C. until time of assay. Four volumes of cold lysis buffer (20 mM HEPES, pH 7.5, 1 mM EDTA, 0.2 g/l Triton X-100® and 0.2 g/L sodium deoxycholate, supplemented with 1 mM DTT and 1 mM PMSF just before use) were added to the blood, which was dissolved by vortexing. For blood that was frozen before coagulation, a clear lysate was obtained. […]
Each reaction was monitored for the appearance of NADH (for transketolase, alpha-ketoglutarate dehydrogenase, pyruvate dehydrogenase) or NADPH (for glucose-6-phosphate dehydrogenase) at room temperature in a fluorescent plate reader with excitation at 340 nm and emission at 470 nm in kinetic mode. The velocity was determined by the slope of the initial linear range of increasing fluorescence, expressed in fluorescent units (FU)/min. The protein concentration in the lysate was determined using Bradford assays (BioRad) with BSA as a standard. […]
We measured enzyme activity in an expanded panel of tissues from mice treated with N3PT or OxyT for 11 days i.p., twice per day. […]

T2 sequence (Q00612 whole entry): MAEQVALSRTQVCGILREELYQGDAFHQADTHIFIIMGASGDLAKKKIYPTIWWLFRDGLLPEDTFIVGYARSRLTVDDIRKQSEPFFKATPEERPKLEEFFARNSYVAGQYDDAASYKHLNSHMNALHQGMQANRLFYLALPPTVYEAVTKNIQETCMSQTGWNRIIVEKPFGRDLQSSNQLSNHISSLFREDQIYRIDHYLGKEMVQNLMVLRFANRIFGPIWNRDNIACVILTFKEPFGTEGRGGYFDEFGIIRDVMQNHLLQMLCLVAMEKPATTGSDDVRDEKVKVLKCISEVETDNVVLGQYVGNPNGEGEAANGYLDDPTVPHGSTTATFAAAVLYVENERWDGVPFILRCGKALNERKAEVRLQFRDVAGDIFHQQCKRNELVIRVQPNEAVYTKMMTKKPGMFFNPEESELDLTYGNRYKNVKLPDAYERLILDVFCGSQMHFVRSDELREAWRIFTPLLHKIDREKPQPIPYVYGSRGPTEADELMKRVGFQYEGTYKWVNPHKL

Cc1ncc(C[n+]2csc(CCO)c2C)c(=O)[nH]1 [OxyT, oxythiamine]
percent inhibition of TK activity in tumors (transketolase (TK); 100 mg/kg, compared to vehicle control): 40%
liver enzymatic (TK) activity (transketolase (TK); liver): hardly affected
G6PDH enzymatic activity following treatment [1]: no significant decrease
